# Experimental data from ChEMBL document CHEMBL1177819, “Monastrol analogs: a synthesis of pyrazolopyridine, benzopyranopyrazolopyridine, and oxygen-bridged azolopyrimidine derivatives and their biological screening” (Bioorg Med Chem Lett, 2010).
# The source made the active and inactive calls. The rule behind the calls is not given here.
# How the values were obtained:
# [1] = target: T1, Kinesin-like protein KIF11 (Homo sapiens) (UniProt P52732); assay: Inhibition of kinasin spindle protein by ATPase assay
# T1 sequence (whole entry): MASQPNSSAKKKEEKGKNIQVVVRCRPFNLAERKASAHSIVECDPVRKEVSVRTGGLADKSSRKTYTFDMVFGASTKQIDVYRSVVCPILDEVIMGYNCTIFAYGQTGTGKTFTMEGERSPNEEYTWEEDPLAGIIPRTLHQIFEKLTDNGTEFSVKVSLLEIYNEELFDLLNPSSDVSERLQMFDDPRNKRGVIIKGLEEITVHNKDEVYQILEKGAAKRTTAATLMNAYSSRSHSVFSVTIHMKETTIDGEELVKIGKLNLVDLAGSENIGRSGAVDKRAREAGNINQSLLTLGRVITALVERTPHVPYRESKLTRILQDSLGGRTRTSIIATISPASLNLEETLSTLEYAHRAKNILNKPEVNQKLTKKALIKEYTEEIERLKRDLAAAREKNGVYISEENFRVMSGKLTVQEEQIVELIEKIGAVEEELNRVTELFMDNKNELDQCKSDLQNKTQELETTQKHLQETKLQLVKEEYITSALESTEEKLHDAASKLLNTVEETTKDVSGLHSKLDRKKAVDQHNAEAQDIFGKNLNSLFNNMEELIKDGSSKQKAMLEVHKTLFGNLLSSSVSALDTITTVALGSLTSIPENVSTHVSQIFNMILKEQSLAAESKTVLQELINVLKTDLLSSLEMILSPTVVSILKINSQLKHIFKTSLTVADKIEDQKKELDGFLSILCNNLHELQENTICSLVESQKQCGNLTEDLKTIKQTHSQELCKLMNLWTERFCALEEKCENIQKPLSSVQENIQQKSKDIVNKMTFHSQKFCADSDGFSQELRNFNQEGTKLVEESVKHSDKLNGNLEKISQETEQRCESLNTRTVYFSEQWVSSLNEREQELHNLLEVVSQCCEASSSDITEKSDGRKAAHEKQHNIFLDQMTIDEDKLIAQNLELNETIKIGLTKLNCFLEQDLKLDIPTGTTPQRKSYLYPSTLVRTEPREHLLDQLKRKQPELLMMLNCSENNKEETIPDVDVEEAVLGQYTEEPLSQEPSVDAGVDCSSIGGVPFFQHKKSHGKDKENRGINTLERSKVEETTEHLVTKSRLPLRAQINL
# [2] = target: T1, Kinesin-like protein KIF11 (Homo sapiens); assay: Inhibition of kinasin spindle protein in human HeLa cells assessed as inhibition of induction of mitotic arrest; format: cell-based
# [3] = Toxicity in african green monkey BSC1 cells at 100 uM; format: cell-based; details: chlorocebus aethiops, bsc-1, 100 µM
# HeLa = assay: Toxicity in human HeLa cells at 100 uM; format: cell-based
SMILES,inhibition [1],inhibition [2],Activity [3],Activity (HeLa)
C[C@@]12C[C@@H](c3ccccc3O1)n1nnnc1N2,inactive,inactive,–,–
Cc1cc2n(n1)[C@H]1C[C@@](C)(N2)Oc2ccccc21,inactive,inactive,–,–
COC(=O)C1=C(C)Nc2n[nH]c(C)c2C1c1cccc(O)c1 (centres undefined),inactive,inactive,–,–
C[C@@]12C[C@@H](c3ccccc3O1)N1CCSC1=N2,inactive,inactive,–,–
CC1=C2C(=O)Oc3ccccc3C2c2c(n[nH]c2C)N1 (centres undefined),inactive,inactive,–,–
C[C@@]12C[C@@H](c3ccccc3O1)n1c(nc3ccccc31)N2,inactive,inactive,Toxic,Toxic
